Data as given in patent US10494360B2, “Inhibitors of indoleamine 2,3-dioxygenase” (NETHERLANDS TRANSLATIONAL RESEARCH CENTER B.V., priority 2016, dated 2019).
“And” between values parts separate entries of the source, which are not always exact repeats. Equal values may be shown once.

Target: IDO1 (Homo sapiens, UniProt P14902)
Assay: Biochemical IDO1 assay (NFK GreenScreen)
Design: Recombinant full-length IDO1 (Seegers, N., et al.) and all other assay components were diluted in IDO1 reaction buffer; made in house
Conditions: less active / most active isomer of the pair; assay not given
Description: Inhibition of IDO1 activity can be measured by determining the enzymatic conversion of L-tryptophan into N-formylkynurenine (NFK) in a reaction mixture containing IDO1 and test compound. The formation of NFK can be detected directly by, for instance, high-performance liquid chromatography (HPLC) methods, or by intrinsic fluorescence.
Compounds were serially diluted in dimethylsulfoxide (DMSO) and finally in IDO1 reaction buffer, consisting of 50 mM NaH2PO4, pH7.0, supplemented with 0.05% Tween-20 (cat. No. P7949; Sigma Aldrich) and 1% glycerol. Recombinant full-length IDO1 (Seegers, N., et al.) and all other assay components were diluted in IDO1 reaction buffer. […] Subsequently, 10 μl of 0.4 mM of the substrate L-tryptophan was added, i.e., the final concentration of L-tryptophan was 100 μM. The DMSO concentration in the assay was 0.3%. […] Incubation was continued for 60 min at room temperature. Then, 10 μl of NFK Green™ (NTRC, Oss, The Netherlands) was added, the plate was sealed, and the reaction was developed for 3 hours at 37° C. To determine the production of N-formyl kynurenine (NFK), the seal was removed and fluorescence was read on an EnVision multimode reader (Perkin Elmer, Waltham, Mass., USA). IC50 were calculated using XLfit™ software (ID Business Solutions, Ltd., Surrey, U.K.).

Chain of IDO1 (P14902 whole entry, species assumed): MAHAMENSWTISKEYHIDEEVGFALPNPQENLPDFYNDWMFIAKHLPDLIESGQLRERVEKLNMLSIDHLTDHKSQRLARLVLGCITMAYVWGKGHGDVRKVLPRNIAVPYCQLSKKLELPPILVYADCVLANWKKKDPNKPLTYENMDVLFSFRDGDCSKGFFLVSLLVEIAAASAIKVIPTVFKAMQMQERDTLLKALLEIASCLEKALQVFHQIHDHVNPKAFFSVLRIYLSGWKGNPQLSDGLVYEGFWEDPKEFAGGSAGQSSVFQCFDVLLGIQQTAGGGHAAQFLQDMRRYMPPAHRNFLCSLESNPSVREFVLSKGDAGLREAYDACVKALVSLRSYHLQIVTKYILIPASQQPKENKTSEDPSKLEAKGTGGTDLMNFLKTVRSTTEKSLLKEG

relative activity of separated isomers	SMILES
most active isomer	O=C1CN(Cc2c(F)cccc2F)C(c2cccc(Br)c2)N1O (single isomer, unassigned) [Example 145b, 2-(3-bromophenyl)-1-[(2,6-difluorophenyl)methyl]-3-hydroxy-imidazolidin-4-one]
less active isomer	O=C1CN(Cc2c(F)cccc2F)C(c2cccc(Br)c2)N1O (single isomer, unassigned) [Example 145a, 2-(3-bromophenyl)-1-[(2,6-difluorophenyl)methyl]-3-hydroxy-imidazolidin-4-one]
less active isomer	O=C1CN(C(=O)c2c(F)cccc2Cl)C(c2ccc(F)c(Br)c2)N1O (single isomer, unassigned) [Example 143a, 2-(3-bromo-4-fluoro-phenyl)-1-(2-chloro-6-fluoro-benzoyl)-3-hydroxy-imidazolidin-4-one]
less active isomer	CC(c1c(F)cccc1F)N1CC(=O)N(O)C1c1cccc(Br)c1 (stereo not drawn) [Example 141a, 2-(3-Bromophenyl)-1-[1-(2,6-difluorophenyl)ethyl]-3-hydroxy-imidazolidin-4-one]

Same assay, conditions: recombinant full-length IDO1 25 nM, L-tryptophan 100 μM, NFK Green detection; read-out: IC50, inhibitory potency on IDO1

SMILES	IC50
Cc1cccc(C2N(O)C(=O)CN2C(=O)c2c(F)cccc2F)c1 (stereo not drawn) [Example 69, 1-(2,6-Difluorobenzoyl)-3-hydroxy-2-(m-tolyl)imidazolidin-4-one]	≤ 5 µM and 1 to 5 µM
O=C1CN(C(=O)c2ccc(Cc3ccccc3)cc2)C(c2cccc(Br)c2)N1O (stereo not drawn) [Example 74, 1-(4-Benzylbenzoyl)-2-(3-bromophenyl)-3-hydroxy-imidazolidin-4-one]	≤ 5 µM and 1 to 5 µM
C[C@@H]1C(=O)N(O)C(c2cccc(Br)c2)N1C(=O)c1ccccc1F (single isomer, unassigned) [Example 57]	≤ 5 µM and 1 to 5 µM
O=C1CN(C(=O)c2c(F)cccc2C(F)(F)F)C(c2cccc(Br)c2)N1O (stereo not drawn) [Example 37, 2-(3-Bromophenyl)-1-[2-fluoro-6-(trifluoromethyl)benzoyl]-3-hydroxy-imidazolidin-4-one]	≤ 1 µM
O=C1CN(Cc2c(F)cccc2F)C(c2cccc(Br)c2)N1O (single isomer, unassigned) [Example 145b, 2-(3-bromophenyl)-1-[(2,6-difluorophenyl)methyl]-3-hydroxy-imidazolidin-4-one]	≤ 1 µM
O=C1CN(Cc2c(F)cccc2F)C(c2cccc(Br)c2)N1O (single isomer, unassigned) [Example 145a, 2-(3-bromophenyl)-1-[(2,6-difluorophenyl)methyl]-3-hydroxy-imidazolidin-4-one]	≤ 1 µM
CC(C)(N)C#Cc1cc(F)c(C(=O)N2CC(=O)N(O)C2c2cccc(Br)c2)c(F)c1 (stereo not drawn) [Example 112, 1-[4-(3-Amino-3-methyl-but-1-ynyl)-2,6-difluoro-benzoyl]-2-(3-bromophenyl)-3-hydroxy-imidazolidin-4-one]	≤ 5 µM and 1 to 5 µM
O=C1CN(C(=O)c2c(F)cccc2Cl)C(c2cccc(Cl)c2)N1O (stereo not drawn) [Example 14, 1-(2-Chloro-6-fluoro-benzoyl)-2-(3-chlorophenyl)-3-hydroxy-imidazolidin-4-one]	≤ 5 µM and 1 to 5 µM
O=C1CN(C(=O)c2c(F)cccc2Cl)C(c2ccc(F)c(Br)c2)N1O (single isomer, unassigned) [Example 143a, 2-(3-bromo-4-fluoro-phenyl)-1-(2-chloro-6-fluoro-benzoyl)-3-hydroxy-imidazolidin-4-one]	≤ 5 µM and 1 to 5 µM
CC(=O)Nc1ccc(F)c(C(=O)N2CC(=O)N(O)C2c2cccc(Br)c2)c1F (stereo not drawn) [Example 77, N-[3-[2-(3-bromophenyl)-3-hydroxy-4-oxo-imidazolidine-1-carbonyl]-2,4-difluoro-phenyl]acetamide]	≤ 1 µM
O=C1CN(C(=O)c2ccccc2C(F)(F)F)C(c2cccc(Br)c2)N1O (stereo not drawn) [Example 28, 2-(3-Bromophenyl)-3-hydroxy-1-[2-(trifluoromethyl)benzoyl]imidazolidin-4-one]	≤ 5 µM and 1 to 5 µM
O=C1CN(C(=O)c2ccccc2)C(c2cccc(C(F)(F)F)c2)N1O (stereo not drawn) [Example 1, 1-Benzoyl-3-hydroxy-2-[3-(trifluoromethyl)phenyl]imidazolidin-4-one]	≤ 5 µM and 1 to 5 µM
O=C1CN(C(=O)c2ccc(C(F)(F)F)cc2F)C(c2cccc(Br)c2)N1O (stereo not drawn) [Example 38, 2-(3-Bromophenyl)-1-[2-fluoro-4-(trifluoromethyl)benzoyl]-3-hydroxy-imidazolidin-4-one]	≤ 5 µM and 1 to 5 µM
O=C1CN(C(=O)c2ccc(F)cc2)C(c2ccc(F)c(Br)c2)N1O (stereo not drawn) [Example 40, 2-(3-Bromo-4-fluoro-phenyl)-1-(4-fluorobenzoyl)-3-hydroxy-imidazolidin-4-one]	≤ 5 µM and 1 to 5 µM
O=C1CN(C(=O)c2c(Cl)cccc2Cl)C(c2ccc(F)c(Br)c2)N1O (stereo not drawn) [Example 48, 2-(3-Bromo-4-fluoro-phenyl)-1-(2,6-dichlorobenzoyl)-3-hydroxy-imidazolidin-4-one]	≤ 5 µM and 1 to 5 µM
O=C1CN(Cc2ccccc2F)C(c2ccc(F)c(Br)c2)N1O (stereo not drawn) [Example 126, 2-(3-Bromo-4-fluoro-phenyl)-1-[(2-fluorophenyl)methyl]-3-hydroxy-imidazolidin-4-one]	≤ 1 µM
O=C1CN(C(=O)c2ccc3cn[nH]c3c2)C(c2cccc(Br)c2)N1O (stereo not drawn) [Example 103, 2-(3-Bromophenyl)-3-hydroxy-1-(1H-indazole-6-carbonyl)imidazolidin-4-one]	≤ 5 µM and 1 to 5 µM
CN(CCO)c1cc(F)c(C(=O)N2CC(=O)N(O)C2c2cccc(Br)c2)c(F)c1 (stereo not drawn) [Example 135, 2-(3-Bromophenyl)-1-[2,6-difluoro-4-[2-hydroxyethyl(methyl)amino]benzoyl]-3-hydroxy-imidazolidin-4-one]	≤ 5 µM and 1 to 5 µM
O=C1CN(C(=O)c2c(F)cc(-c3ccc(F)s3)cc2F)C(c2cccc(Br)c2)N1O (stereo not drawn) [Example 121, 2-(3-Bromophenyl)-1-[2,6-difluoro-4-(5-fluoro-2-thienyl)benzoyl]-3-hydroxy-imidazolidin-4-one]	≤ 5 µM and 1 to 5 µM
O=C1CN(C(=O)c2ccc(Oc3ccccc3)cc2)C(c2cccc(Br)c2)N1O (stereo not drawn) [Example 91, 2-(3-Bromophenyl)-3-hydroxy-1-(4-phenoxybenzoyl)imidazolidin-4-one]	≤ 5 µM and 1 to 5 µM
O=C1CN(C(=O)c2c(F)cc(CCC3CCCCC3)cc2F)C(c2cccc(Br)c2)N1O (stereo not drawn) [Example 131, 2-(3-Bromophenyl)-1-[4-(2-cyclohexylethyl)-2,6-difluoro-benzoyl]-3-hydroxy-imidazolidin-4-one]	≤ 5 µM and 1 to 5 µM
O=C1CN(C(=O)c2ccccc2)C(c2cccc(Cl)c2)N1O (stereo not drawn) [Example 60, 1-Benzoyl-2-(3-chlorophenyl)-3-hydroxy-imidazolidin-4-one]	≤ 5 µM and 1 to 5 µM

Continued, values first:

IC50	SMILES
≤ 5 µM and 1 to 5 µM	CCOC(=O)NC[C@H]1CC[C@H](C(=O)N2CC(=O)N(O)C2c2cccc(Br)c2)CC1 (relative stereo) [Example 102, (Trans)-ethyl N-[[4-[2-(3-bromophenyl)-3-hydroxy-4-oxo-imidazolidine-1-carbonyl]cyclohexyl]-methyl]carbamate]
≤ 5 µM and 1 to 5 µM	CS(=O)(=O)c1ccc(-c2ccc(C(=O)N3CC(=O)N(O)C3c3cccc(Br)c3)cc2)cc1 (stereo not drawn) [Example 97, 2-(3-Bromophenyl)-3-hydroxy-1-[4-(4-methylsulfonylphenyl)benzoyl]imidazolidin-4-one]
≤ 5 µM and 1 to 5 µM	NS(=O)(=O)N1CCC(C(=O)N2CC(=O)N(O)C2c2cccc(Br)c2)CC1 (stereo not drawn) [Example 101, 4-[2-(3-Bromophenyl)-3-hydroxy-4-oxo-imidazolidine-1-carbonyl]piperidine-1-sulfonamide]
≤ 5 µM and 1 to 5 µM	Cc1ccccc1C(=O)N1CC(=O)N(O)C1c1cccc(Br)c1 (stereo not drawn) [Example 20, 2-(3-Bromophenyl)-3-hydroxy-1-(2-methylbenzoyl)imidazolidin-4-one]
≤ 5 µM and 1 to 5 µM	CS(=O)(=O)N1CCC(C(=O)N2CC(=O)N(O)C2c2cccc(Br)c2)CC1 (stereo not drawn) [Example 100, 2-(3-Bromophenyl)-3-hydroxy-1-(1-methylsulfonylpiperidine-4-carbonyl)imidazolidin-4-one]
≤ 5 µM and 1 to 5 µM	O=C1CN(C(=O)c2ccccc2Br)C(c2cccc(Br)c2)N1O (stereo not drawn) [Example 24, 1-(2-Bromobenzoyl)-2-(3-bromophenyl)-3-hydroxy-imidazolidin-4-one]
≤ 5 µM and 1 to 5 µM	O=C1CN(C(=O)c2ccc(Cl)cc2Cl)C(c2cccc(Br)c2)N1O (stereo not drawn) [Example 16, 2-(3-Bromophenyl)-1-(2,4-dichlorobenzoyl)-3-hydroxy-imidazolidin-4-one]
≤ 1 µM	O=C1CN(C(=O)c2cccc(F)c2)C(c2cccc(Br)c2)N1O (stereo not drawn) [Example 36, 2-(3-Bromophenyl)-1-(3-fluorobenzoyl)-3-hydroxy-imidazolidin-4-one]
≤ 5 µM and 1 to 5 µM	O=C1CN(C(=O)c2ncccc2F)C(c2cccc(Br)c2)N1O (stereo not drawn) [Example 89, 2-(3-Bromophenyl)-1-(3-fluoropyridine-2-carbonyl)-3-hydroxy-imidazolidin-4-one]
≤ 5 µM and 1 to 5 µM	O=C1CN(C(=O)c2cc(F)ccc2Cl)C(c2cccc(Br)c2)N1O (stereo not drawn) [Example 31, 2-(3-Bromophenyl)-1-(2-chloro-5-fluoro-benzoyl)-3-hydroxy-imidazolidin-4-one]
≤ 5 µM and 1 to 5 µM	Cc1cccc(F)c1C(=O)N1CC(=O)N(O)C1c1cccc(Br)c1 (stereo not drawn) [Example 88, 2-(3-Bromophenyl)-1-(2-fluoro-6-methyl-benzoyl)-3-hydroxy-imidazolidin-4-one]
≤ 5 µM and 1 to 5 µM	O=C1CN(C(=O)c2c(F)cc(N3CCC3)cc2F)C(c2cccc(Br)c2)N1O (stereo not drawn) [Example 134, 1-[4-(Azetidin-1-yl)-2,6-difluoro-benzoyl]-2-(3-bromophenyl)-3-hydroxy-imidazolidin-4-one]
≤ 1 µM	CS(=O)(=O)NCc1cc(F)c(C(=O)N2CC(=O)N(O)C2c2cccc(Br)c2)c(F)c1 (stereo not drawn) [Example 130, N-[[4-[2-(3-bromophenyl)-3-hydroxy-4-oxo-imidazolidine-1-carbonyl]-3,5-difluoro-phenyl]methyl]methanesulfonamide]
